# How the values were obtained:
# [1] = parameters: method as in PMID 20832863; settings: after 70.5 h of exposure (time point 72 hpf); cited from earlier work
# [2] = tested on: zebrafish embryos/larvae; experiment: Quantification of metabolites E-CBZ and HPPH in pooled culture medium exposed to zebrafish embryos/larvae; type: in vivo, Danio rerio; settings: 250 µM CBZ
# Method: The control and test mediums were also kept in the same incubator until the last time point of the experiment. The embryo media were renewed every 48 h, to avoid medium acidification and oxygen deprivation. At each medium change and at the last time point of the experiment (Figure 9), the media exposed to the embryos were pooled and kept at −80 °C for further use (n = 3).
# [3] = tested on: zebrafish embryos and larvae; experiment: Morphological evaluation of zebrafish embryos/larvae exposed from 5¼ to 120 hpf; settings: in vivo
# Method: Each experiment was performed in two biological replicates (n = 2, 20 embryos/replicate) and consisted of a medium control group (EMS), solvent control group(s) (EMS + 0.5% DMSO and/or EMS + 1% DMSO) and four dose groups. […] Embryos were reared until they reached the desired developmental stage, under the same environmental conditions as the adults (28.5 °C ± 0.3 °C with a 14/10 h light/dark cycle) in the incubator (TIN-IN35, Phoenix instrument, Garbsen, Germany).
# For the metabolites, E-CBZ (≥98% purity, CAS number: 36507-30-9, Supelco, Merck, Darmstadt, Germany) and HPPH (98% purity, CAS number: 2784-27-2, Sigma-Aldrich®, Merck, Darmstadt, Germany), we only selected one high concentration, 250 µM (see Supplementary Table S1). […] A higher percentage of DMSO was used for E-CBZ for the optimum dissolution of E-CBZ in EMS. Immediately after the selection (see Section 4.1), twenty embryos were randomly distributed in each control and test group. Embryos were exposed at the latest at 5 hpf in a final volume of 300 µL medium at a density of a fish per well.
# For each biological replicate (n = 2), zebrafish embryos were morphologically investigated at 5¼, 10, 24, 48, 72, 96 and 120 hpf (Figure 9) using an Olympus CKX41 microscope with an Olympus U-TV0.5XC-3 lighting and an Olympys 4x/0.16 Uplan APO microscope objective (Shinjuku, Tokyo, Japon) to follow the developmental stages described by Kimmel et al.. The 5¼- and 10-hpf time points served as control steps to identify unfertilized or coagulated eggs that were included unwittingly to the experiment and referenced as coagulated in the 24-hpf morphological sheet (see Supplementary Figure S3). A series of morphological parameters were explored, adapted from Nagel et al., depending on the different time points of interest and described previously by our group (see Supplementary Figure S3). All parameters were scored 0 if normal and 1 if malformed. This binary scale was used to facilitate the scoring and no gradation of the severity of the endpoints was evaluated in this study.
# [4] = Microsomal incubation with CBZ and PHE, supersomes (negative control); type: in vitro ADME; settings: data not shown
# Method: Moreover, positive and negative controls were included: pooled human liver microsomes (Gibco™, HMMCPL–PL050B, Thermo Fisher Scientific) and Insect Cell Control Supersomes™ (lot number: PL050 C-B, 456201, Corning Incorporated, Corning, NY, USA), respectively. Based on Oziolor et al., microsomal reactions were initiated after adding the substrate solution at a concentration of 100 µM (see Supplementary Table S1) in a mixture of 100 mM K3PO4 buffer (Corning® Gentest™, NY, USA) of pH 7.4, 5% and 1% of NADPH regenerating system reagents A and B, respectively (Corning, Woburn, MA, USA) and 200 µg/mL of microsomal protein, for a total volume of 500 µL. The reactions were performed at 28.5 ± 0.3 °C until the time point of interest. […] The reactions were stopped at two time points (5 and 240 min) by sampling 40 µL, in duplicate, of the main microsomal reaction and mixed with 120 µL cold (4 °C) acetonitrile (ACN) (Merck, Darmstadt, Germany) already containing the internal standard (IS), LAMO. The samples were then centrifuged for 10 min at 10,000× g to precipitate the proteins, which were denatured in cold ACN.
# [5] = zebrafish (Danio rerio), 120 hpf, 85 µM
# [6] = zebrafish (Danio rerio), 120 hpf, 250 µM
# [7] = zebrafish (Danio rerio), 120 hpf, 31.25 µM
compound,measurement,setting,value
"NC(=O)N1c2ccccc2C=Cc2ccccc21 [CBZ, carbamazepine]",Average quantified concentration higher than the nominal concentration,[1],22.3%
same,Increase of E-CBZ in culture medium between 96 and 120 hpf,[2],six-fold
same,Teratogenicity in zebrafish (conclusion from morphological and analytical assessment),[3],teratogens
same,Coagulation,[3]; [5],2/20
same,Deviation Tail Curve,[3]; [5],1/18
same,Malformation Head Deviation Eye,[3]; [5],1/18
same,Malformation Head Deviation Mouth,[3]; [5],2/18
same,Malformation Head Deviation Shape Head,[3]; [5],3/18
same,Deviation Tail Curve,[3]; [6],2/20
same,Malformation Head Deviation Mouth,[3]; [6],3/20
same,Oedema Yolk,[3]; [6],3/20
"O=C1NC(=O)C(c2ccccc2)(c2ccccc2)N1 [PHE, phenytoin]",Decrease of parent compound after 240 min (pilot investigation),[4],No decrease
same,Teratogenicity in zebrafish (conclusion from morphological and analytical assessment),[3],teratogens
same,Deviation Tail Curve,[3]; [7],1/20
same,Malformation Head Deviation Eye,[3]; [7],2/20
same,Deviation Pigmentation,[3]; [5],2/20
same,Deviation Tail Elbow,[3]; [5],1/20
same,Deviation Tail Tissue Deviation,[3]; [5],2/20
same,Deviation Tail Elbow,[3]; [6],2/20
same,Deviation Tail Tissue Deviation,[3]; [6],1/20
same,No Hatching,[3]; [6],1/20
same,Oedema Head,[3]; [6],1/20
same,Oedema Pericardium,[3]; [6],1/20
same,Oedema Yolk,[3]; [6],1/20

# Source: PMC8657848, “Developmental Toxicity and Biotransformation of Two Anti-Epileptics in Zebrafish Embryos and Early Larvae” (International Journal of Molecular Sciences, 2021)
